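Where inhibition never reached the appropriate level, the endpoint shown equals the highest concentration tested. Otherwise, values were interpolated linearly from a five-concentration, 48-hour dose response in 96-well plates. At the TGI there is no net growth.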
Tested on: HCT-15 colon
Assay: NCI anticancer screen, dose series, 48 h

SMILES	TGI [µM]
O=[N+]([O-])C(=C(Nc1cccc2cccnc12)Nc1cccc2cccnc12)C(Cl)=C(Cl)Cl	> 100
NCCCN1c2ccccc2Sc2ccc(Cl)cc21	> 10
CCOC(=O)c1cccc(N=Nc2nc[nH]c2/C=C/C(=O)OC)c1	> 100
O=C(O)CN1CCN2CCCCCN(CC1)CCN(CC(=O)O)CC2	> 100
Cc1cccc(C)c1NC(=O)C(Cc1c[nH]c2ccccc12)NC(=O)OCc1ccccc1 (stereo not drawn)	> 100
N#CC(C#N)=C1SC(=Nc2ccccc2)C(=Nc2ccccc2)N1c1ccccc1	6.3
Cc1ccc(C2=CC(=O)OC(C[P+](c3ccccc3)(c3ccccc3)c3ccccc3)(c3ccccc3)O2)cc1 (stereo not drawn)	42.8
O=c1oc2cc(O)ccc2c(O)c1C(c1ccccc1)c1c(O)c2ccc(O)cc2oc1=O	> 100
O=C1c2cc(-c3ccccc3)cnc2S(=O)(=O)N1c1ccc(Br)cc1	> 100
O=C(NCP(=O)(Oc1ccccc1)Oc1ccccc1)OCc1ccccc1	> 100
CC(=NNC(=S)Nc1ccccc1)c1cccc(C(C)=NNC(=S)Nc2ccccc2)n1	> 100
CC(C)c1cc2c(c(O)c1O)[C@@]1(C(=O)O)CCCC(C)(C)[C@@H]1CC2	> 100
COC1=CC(=O)c2c(c(-c3nc(C)cs3)cn2C)C1=O	14.7
Cc1c(O)nc(-n2[nH]c3c(c2=O)CCCC3)[nH]c1=O	> 100
C=CCn1c(=O)c(C(=O)Nc2nc(C34CC5CC(CC(C5)C3)C4)cs2)c(O)c2ccccc21	> 100
CCOS(C)(=O)=O	> 100
C=CCc1cc(-c2nc(=S)[nH][nH]2)ccc1N=NNc1ccc(C(=O)O)cc1	> 100
O=C(O)CN1CCNCCN(CC(=O)O)CCN(CC(=O)O)CCNCC1	> 100
CC(NC(=O)Cc1ccccc1)NC(=O)C(C)C(=O)Nc1ccccc1 (stereo not drawn)	> 100
CC(C)(C)[Si](C)(C)OCC1OC(n2ccc(=O)[nH]c2=O)C(O[Si](C)(C)C(C)(C)C)/C1=C/C#N (stereo not drawn)	> 100
Nc1ccc(N=Nc2c(S(=O)(=O)O)cc3ccccc3c2S(=O)(=O)O)cc1	> 100

Tested on: K-562 leukemia
Assay: NCI anticancer screen, dose series, 48 h

SMILES	TGI [µM]
CC1=CCC([C@@](C)(O)CCCC(C)(C)N=C=S)CC1 (stereo partly drawn)	42.4
CCN1CN(c2ccccc2)C2(CCN(CC3COc4ccccc4O3)CC2)C1=O (stereo not drawn)	> 100
N[C@@H](Cc1ccccc1)C(=O)N1CCC[C@@H]1P(=O)(Oc1ccccc1)Oc1ccccc1	> 100
O=c1[nH][nH]c(=O)n1CCCCCCn1c(=O)[nH][nH]c1=O	> 100
C[C@H](CCC(=O)O)[C@H]1CC[C@H]2[C@@H]3C(=O)C[C@@H]4C[C@H](O)CC[C@]4(C)[C@H]3C[C@H](O)[C@]12C	> 100
COc1ccc(-c2nc(SCC(=O)NNC(=S)Nc3ccccc3)[nH]c2-c2ccc(OC)cc2)cc1	> 100
COC(=O)/C=C\C(C#N)(C#N)N=Cc1ccc(C)cc1	16.7
CC(c1ccccc1)N1CCN(C(C)c2ccccc2)CC1 (stereo not drawn)	> 100
COc1ccc(N2C(=O)CC(=O)N(NC(=O)C(C)Oc3ccccc3C)C2=S)cc1 (stereo not drawn)	> 100
COc1cc(OC)cc(C(=O)CC(=O)c2cc(OC)cc(OC)c2)c1	> 100
O=C1OC(C2Cc3ccc4ccccc4c3C2=O)c2ccccc21 (stereo not drawn)	> 100
C/C(=N\N=C1/C(=O)OC(c2ccccc2)=C1C(=O)c1ccccc1)c1ccc([N+](=O)[O-])cc1	> 100
O=C(O)[C@H]1CCCN1CP(=O)(O)CN1CCC[C@@H]1C(=O)O	> 100
O=S(=O)(O)C(CO)c1ccccc1 (stereo not drawn) (tested in a mixture with another compound)	> 100
O=C1c2ccccc2C(=O)N1n1c(Cc2ccc([N+](=O)[O-])cc2)n[nH]c1=O	> 100
Cc1nc(C)c(N2CCN([N+](=O)[O-])CC2)c(=O)[nH]1	> 100
Cc1nn(-c2ccccc2)c2c1C(c1cc3ccccc3nc1Cl)NC(=O)N2 (stereo not drawn)	> 100
Cc1cc(/N=C/c2ccc(N(C)C)cc2)n(-c2ccccc2)n1	> 100
O=C(/C=C/c1ccccc1)Oc1ccc(C(=O)/C=C/c2ccccc2)cc1	> 29.8
COC(=O)C(Cc1ccc2c(c1)CCC2)Cc1ccc2c(c1)CCC2	> 100

SMILES	TGI [µM]
C/C(C[n+]1ccccc1)=N\N=C(N)N	> 100
O=[N+]([O-])C(=C(Nc1cccc2cccnc12)Nc1cccc2cccnc12)C(Cl)=C(Cl)Cl	> 100
NCCCN1c2ccccc2Sc2ccc(Cl)cc21	> 8.41
CCOC(=O)c1cccc(N=Nc2nc[nH]c2/C=C/C(=O)OC)c1	> 100
O=C(O)CN1CCN2CCCCCN(CC1)CCN(CC(=O)O)CC2	> 100
Cc1cccc(C)c1NC(=O)C(Cc1c[nH]c2ccccc12)NC(=O)OCc1ccccc1 (stereo not drawn)	> 100
N#CC(C#N)=C1SC(=Nc2ccccc2)C(=Nc2ccccc2)N1c1ccccc1	7.12
Cc1ccc(C2=CC(=O)OC(C[P+](c3ccccc3)(c3ccccc3)c3ccccc3)(c3ccccc3)O2)cc1 (stereo not drawn)	> 100
O=c1oc2cc(O)ccc2c(O)c1C(c1ccccc1)c1c(O)c2ccc(O)cc2oc1=O	> 100
O=C(NCP(=O)(Oc1ccccc1)Oc1ccccc1)OCc1ccccc1	> 100
CC(=NNC(=S)Nc1ccccc1)c1cccc(C(C)=NNC(=S)Nc2ccccc2)n1	> 53.5
CC(C)c1cc2c(c(O)c1O)[C@@]1(C(=O)O)CCCC(C)(C)[C@@H]1CC2	> 100
COC1=CC(=O)c2c(c(-c3nc(C)cs3)cn2C)C1=O	20.6
Cc1c(O)nc(-n2[nH]c3c(c2=O)CCCC3)[nH]c1=O	> 100
C=CCn1c(=O)c(C(=O)Nc2nc(C34CC5CC(CC(C5)C3)C4)cs2)c(O)c2ccccc21	> 100
CCOS(C)(=O)=O	> 100
C=CCc1cc(-c2nc(=S)[nH][nH]2)ccc1N=NNc1ccc(C(=O)O)cc1	> 100
O=C(O)CN1CCNCCN(CC(=O)O)CCN(CC(=O)O)CCNCC1	> 100
CC(NC(=O)Cc1ccccc1)NC(=O)C(C)C(=O)Nc1ccccc1 (stereo not drawn)	> 100
Nc1ccc(N=Nc2c(S(=O)(=O)O)cc3ccccc3c2S(=O)(=O)O)cc1	> 100

Tested on: A549 NSCLC
Assay: NCI anticancer screen, dose series, 48 h

SMILES	TGI [µM]
CC1=CCC([C@@](C)(O)CCCC(C)(C)N=C=S)CC1 (stereo partly drawn)	34.2
CCN1CN(c2ccccc2)C2(CCN(CC3COc4ccccc4O3)CC2)C1=O (stereo not drawn)	> 100
N[C@@H](Cc1ccccc1)C(=O)N1CCC[C@@H]1P(=O)(Oc1ccccc1)Oc1ccccc1	> 100
O=c1[nH][nH]c(=O)n1CCCCCCn1c(=O)[nH][nH]c1=O	> 100
C[C@H](CCC(=O)O)[C@H]1CC[C@H]2[C@@H]3C(=O)C[C@@H]4C[C@H](O)CC[C@]4(C)[C@H]3C[C@H](O)[C@]12C	> 100
COc1ccc(-c2nc(SCC(=O)NNC(=S)Nc3ccccc3)[nH]c2-c2ccc(OC)cc2)cc1	> 100
COC(=O)/C=C\C(C#N)(C#N)N=Cc1ccc(C)cc1	34.3
CC(c1ccccc1)N1CCN(C(C)c2ccccc2)CC1 (stereo not drawn)	> 100
COc1ccc(N2C(=O)CC(=O)N(NC(=O)C(C)Oc3ccccc3C)C2=S)cc1 (stereo not drawn)	> 100
COc1cc(OC)cc(C(=O)CC(=O)c2cc(OC)cc(OC)c2)c1	> 100
O=C1OC(C2Cc3ccc4ccccc4c3C2=O)c2ccccc21 (stereo not drawn)	> 100
C/C(=N\N=C1/C(=O)OC(c2ccccc2)=C1C(=O)c1ccccc1)c1ccc([N+](=O)[O-])cc1	> 100
O=C(O)[C@H]1CCCN1CP(=O)(O)CN1CCC[C@@H]1C(=O)O	> 100
O=S(=O)(O)C(CO)c1ccccc1 (stereo not drawn) (tested in a mixture with another compound)	> 100
O=C1c2ccccc2C(=O)N1n1c(Cc2ccc([N+](=O)[O-])cc2)n[nH]c1=O	> 100
Cc1nc(C)c(N2CCN([N+](=O)[O-])CC2)c(=O)[nH]1	> 100
Cc1nn(-c2ccccc2)c2c1C(c1cc3ccccc3nc1Cl)NC(=O)N2 (stereo not drawn)	> 100
Cc1cc(/N=C/c2ccc(N(C)C)cc2)n(-c2ccccc2)n1	> 100
O=C(/C=C/c1ccccc1)Oc1ccc(C(=O)/C=C/c2ccccc2)cc1	> 89.1
COC(=O)C(Cc1ccc2c(c1)CCC2)Cc1ccc2c(c1)CCC2	> 100
C/C(C[n+]1ccccc1)=N\N=C(N)N	> 100

SMILES	TGI [µM]
O=[N+]([O-])C(=C(Nc1cccc2cccnc12)Nc1cccc2cccnc12)C(Cl)=C(Cl)Cl	> 100
CNc1cc2c(c3ccccc13)C(CCl)CN2C(=O)c1cc2cc(OC)c(OC)c(OC)c2[nH]1 (stereo not drawn)	> 100
NCCCN1c2ccccc2Sc2ccc(Cl)cc21	> 10
CCOC(=O)c1cccc(N=Nc2nc[nH]c2/C=C/C(=O)OC)c1	> 100
O=C(O)CN1CCN2CCCCCN(CC1)CCN(CC(=O)O)CC2	> 100
Cc1cccc(C)c1NC(=O)C(Cc1c[nH]c2ccccc12)NC(=O)OCc1ccccc1 (stereo not drawn)	46.6
N#CC(C#N)=C1SC(=Nc2ccccc2)C(=Nc2ccccc2)N1c1ccccc1	> 100
Cc1ccc(C2=CC(=O)OC(C[P+](c3ccccc3)(c3ccccc3)c3ccccc3)(c3ccccc3)O2)cc1 (stereo not drawn)	34.3
O=c1oc2cc(O)ccc2c(O)c1C(c1ccccc1)c1c(O)c2ccc(O)cc2oc1=O	> 100
O=C1c2cc(-c3ccccc3)cnc2S(=O)(=O)N1c1ccc(Br)cc1	49.3
O=C(NCP(=O)(Oc1ccccc1)Oc1ccccc1)OCc1ccccc1	> 100
CC(=NNC(=S)Nc1ccccc1)c1cccc(C(C)=NNC(=S)Nc2ccccc2)n1	> 46.4
CC(C)c1cc2c(c(O)c1O)[C@@]1(C(=O)O)CCCC(C)(C)[C@@H]1CC2	67.4
COC1=CC(=O)c2c(c(-c3nc(C)cs3)cn2C)C1=O	12
C=CCn1c(=O)c(C(=O)Nc2nc(C34CC5CC(CC(C5)C3)C4)cs2)c(O)c2ccccc21	45.1
CCOS(C)(=O)=O	> 100
C=CCc1cc(-c2nc(=S)[nH][nH]2)ccc1N=NNc1ccc(C(=O)O)cc1	> 100
O=C(O)CN1CCNCCN(CC(=O)O)CCN(CC(=O)O)CCNCC1	> 100
CC(NC(=O)Cc1ccccc1)NC(=O)C(C)C(=O)Nc1ccccc1 (stereo not drawn)	> 100
CC(C)(C)[Si](C)(C)OCC1OC(n2ccc(=O)[nH]c2=O)C(O[Si](C)(C)C(C)(C)C)/C1=C/C#N (stereo not drawn)	> 100
Nc1ccc(N=Nc2c(S(=O)(=O)O)cc3ccccc3c2S(=O)(=O)O)cc1	> 100
